Experimental data published in US7998460B2, “Prevention of deficits in neurogenesis with anti-inflammatory agents” (The Board of Trustees of the Leland Stanford Junior …, priority 2003, dated 2011).

System: hippocampal neurogenesis
Assay: LPS-induced transient illness, microglia and hippocampal neurogenesis in mice
Format: in vivo, mouse
Experimental: To investigate whether an LPS challenge produces more chronic effects on neurogenesis, adult female C57BI/6 mice were injected intraperitoneally (i.p.) with 0, 5, 7.5 and 10 mg/kg of LPS and subcutaneously with sterile saline to prevent dehydration. Mice were then injected once daily over the next 6 days with the cell synthesis marker bromodeoxyuridine (BrdU; 50 mg/kg) to label dividing progenitor cells. Histology was performed on sections from mice that were perfused on Day 7 or Day 28. The number of BrdU-labeled (new) or IBA-1-labeled (monocyte/microglial) cells was estimated through hippocampal sets stereologically using enzyme substrate immunohistochemistry and light microscopy and BrdU-labeled cell phenotypes and IBA-1-labeled activation was determined using immunofluorescence and confocal microscopy.
Subjects. All mice used as subjects in this study were treated in accordance with the policies set forth by the Stanford Animal Care and Use Committee and NIH regarding the ethical use of animals for experimentation. CB57BI/6 mice (7 wks old upon arrival from -Taconic) were housed in groups of 4-5 in autoclaved shoebox cages under standard conditions and were given free access to autoclaved Prolab Mouse 3000 chow (PMI Nutrition International, St. Louis, Mo.) and autoclaved tap water. One week after arrival, vehicle- and NSAID-treated mice were given an intraperitoneal (i.p.) injection of sterile saline or lipopolysaccharide (LPS; 5 mg/kg at a concentration of 1 mg/ml isotonic saline; Sigma Aldrich, St. Louis, Mo.) to induce transient illness (Day 0) and daily subcutaneous (s.c.) isotonic saline (0.5 ml) injections (Days 0-3) to prevent illness-induced dehydration. The cell synthesis marker bromodeoxyuridine (BrdU; Sigma Aldrich, St. Louis, Mo.) was injected i.p. (50 mg/kg at a concentration of 10 mg/ml in freshly prepared isotonic saline) once per day for 6 days to label dividing cells, beginning Day 0 (2 h after LPS). The mice were anesthetized with ketamine/xylazine and killed at Days 7 or 28 (to assess hippocampal neurogenesis during illness and just before behavioral testing, respectively) or Day 80 (to measure hippocampal neurogenesis following behavioural testing) by perfusion with 4% paraformaldehyde. Brains were post-fixed overnight in perfusate, microtome sectioned at 40 μm through the hippocampus and stored in tissue cryoprotectant solution at −20° C. until processed immunohistochemically.
Histology and Immunohistochemistry. Free floating sections were immunostained as described previously using the following primary antibodies and working concentrations: rat anti-bromodeoxyuridine (1:500; Accurate, Westbury, N.J.) goat anti-doublecortin (1:500; Santa Cruz, Calif.), rabbit anti-[…] (1:2000; WAKO, Los Angeles, Calif.), rabbit anti-FA-11 (CD68; 1:200; Serotec, Raleigh, N.C.), guinea pig anti-GFAP (1:750; Harlan, Indianapolis, Ind.), rabbit anti-NG2 (1:2000; a gift from W. Stallcup), mouse anti-NeuN (1:500; Chemicon; Temeculah, Calif.). Tissue was incubated in all primary antibodies ovemight (and in anti-BrdU for 48 h) at 4° C. Phenotyping sets were incubated in minimally cross-reactive secondary IGg conjugated fluorophores (1:500; Jackson Immunoresearch, West Grove, Pa.) overnight at 4° C. and coverslipped under PVA-DABCO.
Cell Counting and Unbiased Stereology. BrdU-labeled cells were phenotyped and total BrdU-labeled and […] cell numbers stereologically estimated if they were located in the hippocampal granule cell layer proper and subgranular zone (the neurogenic zone that includes a 50 μm border between the hilus and granule cell layer). BrdU-labeled cells were phenotyped on immunofluroescent stained sections that were anatomically matched using a Zeiss 510 Meta confocal microscope using a multi-channel configuration with a 40× objective and electronic zoom of 2.3. Appropriate gain and black level was set using control sections stained with secondary antibodies alone. […]

[1] = dentate gyri, 4 weeks after LPS

lipopolysaccharide [LPS]
reduction in the net number of new neurons (4 weeks after LPS challenge): 45-55%
reduction of BrdU positive cells colabeled with NeuN (4 weeks after LPS challenge): ≈ 57%
reduction of BrdU-positive cells colabeled with DCX/NeuN (4 weeks after LPS challenge): ≈ 44%
total number of BrdU positive cells vs vehicle (6 and 28 d after injection): similar
activation (FA-11/CD68) intensity on IBA-1 positive cells vs vehicle [1]: 1.25 fold
total IBA-1 positive cell number vs vehicle [1]: similar
reduction of BrdU positive cells colabeled with DCX/NeuN (week following LPS challenge, independent of LPS dose): ≈ 41%
